Results published in patent US11339130B1 (Blade Therapeutics, Inc., priority 2016, dated 2022).

Legend:
Assay type in all cases: biochemical
Human Calpain 9/NS1 = target: T1, Human Calpain 9/NS1 (Homo sapiens, UniProt O14815); assay: Calpain inhibition continuous fluorescence (FRET) assay, Human Calpain 9/NS1; details: Column C; read-out: Human Calpain 9/NS1 IC50
T1 sequence (O14815 1-690): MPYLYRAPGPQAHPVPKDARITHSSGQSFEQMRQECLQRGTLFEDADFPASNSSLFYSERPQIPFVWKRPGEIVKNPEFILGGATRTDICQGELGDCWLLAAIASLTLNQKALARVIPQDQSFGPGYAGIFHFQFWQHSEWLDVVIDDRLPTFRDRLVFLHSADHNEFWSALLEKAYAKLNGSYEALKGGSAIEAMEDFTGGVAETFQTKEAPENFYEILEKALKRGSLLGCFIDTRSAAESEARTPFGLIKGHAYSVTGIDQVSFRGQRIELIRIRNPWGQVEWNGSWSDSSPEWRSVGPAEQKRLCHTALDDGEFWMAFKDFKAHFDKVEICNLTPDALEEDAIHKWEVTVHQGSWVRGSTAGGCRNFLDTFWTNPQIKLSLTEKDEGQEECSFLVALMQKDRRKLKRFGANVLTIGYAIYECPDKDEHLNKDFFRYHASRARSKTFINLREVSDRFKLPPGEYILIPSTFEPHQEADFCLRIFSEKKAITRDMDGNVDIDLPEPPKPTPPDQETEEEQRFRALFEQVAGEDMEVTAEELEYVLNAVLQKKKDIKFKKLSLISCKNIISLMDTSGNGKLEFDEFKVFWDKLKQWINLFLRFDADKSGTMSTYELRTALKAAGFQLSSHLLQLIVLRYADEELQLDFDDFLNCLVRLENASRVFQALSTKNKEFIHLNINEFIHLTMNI
T1 sequence (P04632 1-268 partner): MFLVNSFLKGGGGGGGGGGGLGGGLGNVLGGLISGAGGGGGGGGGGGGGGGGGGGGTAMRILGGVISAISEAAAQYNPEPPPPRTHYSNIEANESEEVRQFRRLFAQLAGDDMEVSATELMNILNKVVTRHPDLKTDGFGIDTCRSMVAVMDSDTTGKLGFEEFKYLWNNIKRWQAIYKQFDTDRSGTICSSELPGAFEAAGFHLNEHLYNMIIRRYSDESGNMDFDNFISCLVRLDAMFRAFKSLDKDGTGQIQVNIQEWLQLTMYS
How it was run: (§1)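 Buffer 50 mM Tris pH 7.5/100 mM NaCl/1 mM DTT; enzyme + cpd preinc 25C; start w/ FRET substrate + CaCl2; kinetic 490/520 nm, 10 min; slopes 1-5 min; 4-PL IC50.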

Human Calpain 1/NS1 = target: T2, Human Calpain 1/NS1 (Homo sapiens, UniProt P07384); assay: Calpain inhibition continuous fluorescence (FRET) assay, Human Calpain 1/NS1; details: Column A; read-out: Human Calpain 1/NS1 IC50
T2 sequence (P07384 1-714): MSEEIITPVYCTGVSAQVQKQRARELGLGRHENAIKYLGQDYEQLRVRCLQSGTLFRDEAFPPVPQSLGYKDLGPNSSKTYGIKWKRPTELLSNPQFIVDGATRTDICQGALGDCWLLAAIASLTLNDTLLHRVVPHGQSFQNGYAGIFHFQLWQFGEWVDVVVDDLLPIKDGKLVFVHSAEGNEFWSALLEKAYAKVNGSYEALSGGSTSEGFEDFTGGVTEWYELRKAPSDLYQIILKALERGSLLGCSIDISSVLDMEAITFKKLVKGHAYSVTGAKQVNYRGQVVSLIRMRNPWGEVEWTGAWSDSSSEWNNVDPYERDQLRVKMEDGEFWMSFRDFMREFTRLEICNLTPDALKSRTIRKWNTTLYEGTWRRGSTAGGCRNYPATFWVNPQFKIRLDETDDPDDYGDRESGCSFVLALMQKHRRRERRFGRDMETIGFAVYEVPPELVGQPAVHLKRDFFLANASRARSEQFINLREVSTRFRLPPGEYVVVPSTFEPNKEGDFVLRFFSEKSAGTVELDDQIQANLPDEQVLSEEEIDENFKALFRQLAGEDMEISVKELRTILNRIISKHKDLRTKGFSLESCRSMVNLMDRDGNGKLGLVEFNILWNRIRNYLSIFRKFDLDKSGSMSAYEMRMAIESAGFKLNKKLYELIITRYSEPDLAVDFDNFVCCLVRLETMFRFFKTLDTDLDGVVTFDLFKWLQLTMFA
T2 sequence (P04632 1-268 partner): T1 sequence (P04632 1-268 partner)
How it was run: as §1

Human Calpain 2/NS1 = target: T3, Human Calpain 2/NS1 (Homo sapiens, UniProt P17655); assay: Calpain inhibition continuous fluorescence (FRET) assay, Human Calpain 2/NS1; details: Column B; read-out: Human Calpain 2/NS1 IC50
T3 sequence (P17655 1-700): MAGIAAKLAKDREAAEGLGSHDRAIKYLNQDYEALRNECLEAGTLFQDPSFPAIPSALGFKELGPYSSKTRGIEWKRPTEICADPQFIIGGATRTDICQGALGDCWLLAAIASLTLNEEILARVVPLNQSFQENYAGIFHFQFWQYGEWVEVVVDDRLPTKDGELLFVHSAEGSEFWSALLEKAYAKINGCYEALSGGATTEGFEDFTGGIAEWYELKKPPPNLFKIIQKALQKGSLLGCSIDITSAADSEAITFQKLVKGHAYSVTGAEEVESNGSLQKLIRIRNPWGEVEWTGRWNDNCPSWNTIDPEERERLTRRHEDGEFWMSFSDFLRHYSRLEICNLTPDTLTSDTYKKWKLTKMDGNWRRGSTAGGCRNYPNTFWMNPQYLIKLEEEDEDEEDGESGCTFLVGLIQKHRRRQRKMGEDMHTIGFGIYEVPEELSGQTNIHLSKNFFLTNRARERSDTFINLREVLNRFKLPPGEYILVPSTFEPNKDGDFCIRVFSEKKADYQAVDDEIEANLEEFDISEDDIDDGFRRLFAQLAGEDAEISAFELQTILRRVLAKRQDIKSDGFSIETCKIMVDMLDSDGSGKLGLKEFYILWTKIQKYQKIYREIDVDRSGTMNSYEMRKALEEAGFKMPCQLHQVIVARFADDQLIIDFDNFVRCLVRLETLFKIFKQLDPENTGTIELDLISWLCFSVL
T3 sequence (P04632 1-268 partner): T1 sequence (P04632 1-268 partner)
How it was run: as §1

| SMILES | IC50 (Human Calpain 9/NS1) [µM] | IC50 (Human Calpain 1/NS1) [µM] | IC50 (Human Calpain 2/NS1) [µM] |
| --- | --- | --- | --- |
| Cc1cc(C(F)(F)F)cc(-n2nc(C)cc2C(=O)N[C@@H](Cc2ccccc2)C(=O)C(=O)NC2CC2)n1 [Compound 206, (S)—N-(4-(cyclopropylamino)-3,4-dioxo-1-phenylbutan-2-yl)-3-methyl-1-(6-methyl-4-(trifluoromethyl)pyridin-2-yl)-1H-pyrazole-5-carboxamide] | > 10 | < 3 | > 10 |
| Cc1cc(C(=O)N[C@@H](Cc2ccccc2)C(=O)C(N)=O)nn1-c1nccs1 [Compound 219, (S)—N-(4-amino-3,4-dioxo-1-phenylbutan-2-yl)-5-methyl-1-(thiazol-2-yl)-1H-pyrazole-3-carboxamide] | 3 to 10 | 3 to 10 | 3 to 10 |
| NC(=O)C(=O)[C@H](Cc1ccccc1)NC(=O)[C@@H]1C[C@@H](OCc2ccccc2)CN1c1ccccc1 [Compound 220, (2S,4R)—N—((S)-4-amino-3,4-dioxo-1-phenylbutan-2-yl)-4-(benzyloxy)-1-phenylpyrrolidine-2-carboxamide] | 3 to 10 | < 3 | < 3 |
| Cc1noc(-c2ccccc2)c1C(=O)N[C@@H](Cc1ccccc1)C(=O)C(=O)NCc1cccnc1 [Compound 224, (S)—N-(3,4-dioxo-1-phenyl-4-((pyridin-3-ylmethyl)amino)butan-2-yl)-3-methyl-5-phenylisoxazole-4-carboxamide] | 3 to 10 | < 3 | 3 to 10 |
| Cc1noc(-c2ccccc2)c1C(=O)N[C@@H](Cc1ccccc1)C(=O)C(=O)NCc1ccc2c(c1)OCO2 [Compound 225, (S)—N-(4-((benzo[d][1,3]dioxol-5-ylmethyl)amino)-3,4-dioxo-1-phenylbutan-2-yl)-3-methyl-5-phenylisoxazole-4-carboxamide] | > 10 | < 3 | > 10 |
| Cc1cc(-n2nc(C(=O)N[C@@H](Cc3ccccc3)C(=O)C(N)=O)cc2C)nc(C)n1 [Compound 232, (S)—N-(4-amino-3,4-dioxo-1-phenylbutan-2-yl)-1-(2,6-dimethylpyrimidin-4-yl)-5-methyl-1H-pyrazole-3-carboxamide] | 3 to 10 | > 10 | > 10 |
| Cc1cc(C(=O)N[C@@H](Cc2ccccc2)C(=O)C(N)=O)n(-c2ccc(-c3ccccc3)nn2)n1 [Compound 233, (S)—N-(4-amino-3,4-dioxo-1-phenylbutan-2-yl)-3-methyl-1-(6-phenylpyridazin-3-yl)-1H-pyrazole-5-carboxamide] | 3 to 10 | < 3 | < 3 |
| Cn1cc(-c2ccccc2)c(C(=O)N[C@@H](Cc2ccccc2)C(=O)C(N)=O)n1 [Compound 241, (S)—N-(4-amino-3,4-dioxo-1-phenylbutan-2-yl)-1-methyl-4-phenyl-1H-pyrazole-3-carboxamide] | < 3 | < 3 | < 3 |
| Cc1noc(-c2ccccc2)c1C(=O)N[C@@H](Cc1ccccc1)C(=O)C(=O)NCc1ccc(OC(F)(F)F)cc1 [Compound 247, (S)—N-(3,4-dioxo-1-phenyl-4-((4-(trifluoromethoxy)benzyl)amino)butan-2-yl)-3-methyl-5-phenylisoxazole-4-carboxamide] | 3 to 10 | 3 to 10 | 3 to 10 |
| Cc1cc(C(=O)N[C@@H](Cc2ccccc2)C(=O)C(N)=O)nn1-c1nc2ccccc2o1 [Compound 256, (S)—N-(4-amino-3,4-dioxo-1-phenylbutan-2-yl)-1-(benzo[d]oxazol-2-yl)-5-methyl-1H-pyrazole-3-carboxamide] | < 3 | > 10 | > 10 |
| NC(=O)C(=O)[C@H](Cc1ccccc1)NC(=O)c1c(F)cnn1-c1ccccc1 [Compound 258, (S)—N-(4-amino-3,4-dioxo-1-phenylbutan-2-yl)-4-fluoro-1-phenyl-1H-pyrazole-5-carboxamide] | < 3 | < 3 | < 3 |

Second part, the molecule after the results:

| IC50 (Human Calpain 9/NS1) [µM] | IC50 (Human Calpain 1/NS1) [µM] | IC50 (Human Calpain 2/NS1) [µM] | SMILES |
| --- | --- | --- | --- |
| < 3 | < 3 | < 3 | Cc1cc(C(=O)N[C@@H](Cc2ccccc2)C(=O)C(N)=O)n(-c2ccncc2)n1 [Compound 209, (S)—N-(4-amino-3,4-dioxo-1-phenylbutan-2-yl)-3-methyl-1-(pyridin-4-yl)-1H-pyrazole-5-carboxamide] |
| < 3 | < 3 | < 3 | Cc1noc(-n2ccc(-c3ccccc3)n2)c1C(=O)N[C@@H](Cc1ccccc1)C(=O)C(N)=O [Compound 211, (S)—N-(4-amino-3,4-dioxo-1-phenylbutan-2-yl)-3-methyl-5-(3-phenyl-1H-pyrazol-1-yl)isoxazole-4-carboxamide] |
| < 3 | < 3 | < 3 | NC(=O)C(=O)[C@H](Cc1ccccc1)NC(=O)c1c(Cl)nsc1-c1ccccc1 [Compound 213, (S)—N-(4-amino-3,4-dioxo-1-phenylbutan-2-yl)-3-chloro-5-phenylisothiazole-4-carboxamide] |
| < 3 | < 3 | < 3 | Cc1cc(C(=O)N[C@@H](Cc2ccccc2)C(=O)C(N)=O)n(-c2nccs2)n1 [Compound 215, (S)—N-(4-amino-3,4-dioxo-1-phenylbutan-2-yl)-3-methyl-1-(thiazol-2-yl)-1H-pyrazole-5-carboxamide] |
| < 3 | < 3 | < 3 | Cc1cc(C(F)(F)F)cc(-n2nc(C)cc2C(=O)N[C@@H](Cc2ccccc2)C(=O)C(N)=O)n1 [Compound 234, (S)—N-(4-amino-3,4-dioxo-1-phenylbutan-2-yl)-3-methyl-1-(6-methyl-4-(trifluoromethyl)pyridin-2-yl)-1H-pyrazole-5-carboxamide] |
| < 3 | < 3 | < 3 | Cc1cc(-n2nc(C)cc2C(=O)N[C@@H](Cc2ccccc2)C(=O)C(N)=O)nc(C)n1 [Compound 235, (S)—N-(4-amino-3,4-dioxo-1-phenylbutan-2-yl)-1-(2,6-dimethylpyrimidin-4-yl)-3-methyl-1H-pyrazole-5-carboxamide] |
| < 3 | < 3 | < 3 | Cn1ncc(-c2ccccc2)c1C(=O)N[C@@H](Cc1ccccc1)C(=O)C(N)=O [Compound 240] |
